Active and inactive are the calls of the source.
Columns and labels:
Rattus norvegicus [1] = test: (§1) Antinociceptive activity in Sprague-Dawley rat model of chronic constriction injury-induced mono-neuropathic pain assessed as reduction in mechanical allodynia by measuring paw withdrawal threshold at 3 mg/kg, po administered as single dose and measured 30 mins to 24 hrs post dose by Von Frey's hairs assay; format: functional, organism-based
Rattus norvegicus [2] = test: Antinociceptive activity in Sprague-Dawley rat model of CFA-induced chronic inflammatory pain assessed as reduction in mechanical allodynia by measuring paw withdrawal threshold at 3 mg/kg, po administered as single dose and measured 30 mins to 24 hrs post dose by Von Frey's hairs assay; format: functional, organism-based
Rattus norvegicus [3] = test: Antinociceptive activity in Sprague-Dawley rat model of CFA-induced chronic inflammatory pain assessed as reduction in mechanical allodynia by measuring paw withdrawal threshold at 10 mg/kg, po administered as single dose and measured 30 mins to 24 hrs post dose by Von Frey's hairs assay; format: functional, organism-based
Rattus norvegicus [4] = test: as §1, with “at 60” for “at 3”; format: functional, organism-based
Rattus norvegicus [5] = test: Antinociceptive activity in Sprague-Dawley rat model of CFA-induced chronic inflammatory pain assessed as reduction in mechanical allodynia by measuring paw withdrawal threshold at 1.8 mg/kg, po administered as single dose and measured 30 mins to 24 hrs post dose by Von Frey's hairs assay; format: functional, organism-based
Rattus norvegicus [6] = test: as §1, with “at 1.8” for “at 3”; format: functional, organism-based
Rattus norvegicus [7] = test: Antinociceptive activity in Sprague-Dawley rat model of CFA-induced chronic inflammatory pain assessed as reduction in mechanical allodynia by measuring paw withdrawal threshold at 20 mg/kg, po administered as single dose and measured 30 mins to 24 hrs post dose by Von Frey's hairs assay; format: functional, organism-based
Rattus norvegicus [8] = test: as §1, with “at 20” for “at 3”; format: functional, organism-based
Rattus norvegicus [9] = test: Antinociceptive activity in Sprague-Dawley rat model of CFA-induced chronic inflammatory pain assessed as reduction in mechanical allodynia by measuring paw withdrawal threshold at 2 mg/kg, po administered as single dose and measured 30 mins to 24 hrs post dose by Von Frey's hairs assay; format: functional, organism-based
Rattus norvegicus [10] = test: as §1, with “at 2” for “at 3”; format: functional, organism-based
[11] = biological target: 3',5'-cyclic-AMP phosphodiesterase 4D (Homo sapiens, UniProt Q08499); test: Inhibition of human PDE4D catalytic domain using [3H]-cAMP or [3H]-cGMP incubated for 30 mins by scintillation counting method
Rattus norvegicus [12] = test: as §1, with “at 200” for “at 3”; format: functional, organism-based
Rattus norvegicus [13] = test: Antinociceptive activity in Sprague-Dawley rat model of CFA-induced chronic inflammatory pain assessed as reduction in mechanical allodynia by measuring paw withdrawal threshold at 200 mg/kg, po administered as single dose and measured 30 mins to 24 hrs post dose by Von Frey's hairs assay; format: functional, organism-based
Rattus norvegicus [14] = test: Antinociceptive activity in Sprague-Dawley rat model of CFA-induced chronic inflammatory pain assessed as reduction in mechanical allodynia by measuring paw withdrawal threshold at 60 mg/kg, po administered as single dose and measured 30 mins to 24 hrs post dose by Von Frey's hairs assay; format: functional, organism-based
Rattus norvegicus [15] = test: Antinociceptive activity in Sprague-Dawley rat model of CFA-induced chronic inflammatory pain assessed as reduction in mechanical allodynia by measuring paw withdrawal threshold at 50 mg/kg, po administered as single dose and measured 30 mins to 24 hrs post dose by Von Frey's hairs assay; format: functional, organism-based
Rattus norvegicus [16] = test: Antinociceptive activity in Sprague-Dawley rat model of CFA-induced chronic inflammatory pain assessed as reduction in mechanical allodynia by measuring paw withdrawal threshold at 500 mg/kg, po administered as single dose and measured 30 mins to 24 hrs post dose by Von Frey's hairs assay; format: functional, organism-based
Rattus norvegicus [17] = test: as §1, with “at 50” for “at 3”; format: functional, organism-based
Rattus norvegicus [18] = test: as §1, with “at 500” for “at 3”; format: functional, organism-based

Chain of 3',5'-cyclic-AMP phosphodiesterase 4D (Q08499 whole entry, the tested form may be a part): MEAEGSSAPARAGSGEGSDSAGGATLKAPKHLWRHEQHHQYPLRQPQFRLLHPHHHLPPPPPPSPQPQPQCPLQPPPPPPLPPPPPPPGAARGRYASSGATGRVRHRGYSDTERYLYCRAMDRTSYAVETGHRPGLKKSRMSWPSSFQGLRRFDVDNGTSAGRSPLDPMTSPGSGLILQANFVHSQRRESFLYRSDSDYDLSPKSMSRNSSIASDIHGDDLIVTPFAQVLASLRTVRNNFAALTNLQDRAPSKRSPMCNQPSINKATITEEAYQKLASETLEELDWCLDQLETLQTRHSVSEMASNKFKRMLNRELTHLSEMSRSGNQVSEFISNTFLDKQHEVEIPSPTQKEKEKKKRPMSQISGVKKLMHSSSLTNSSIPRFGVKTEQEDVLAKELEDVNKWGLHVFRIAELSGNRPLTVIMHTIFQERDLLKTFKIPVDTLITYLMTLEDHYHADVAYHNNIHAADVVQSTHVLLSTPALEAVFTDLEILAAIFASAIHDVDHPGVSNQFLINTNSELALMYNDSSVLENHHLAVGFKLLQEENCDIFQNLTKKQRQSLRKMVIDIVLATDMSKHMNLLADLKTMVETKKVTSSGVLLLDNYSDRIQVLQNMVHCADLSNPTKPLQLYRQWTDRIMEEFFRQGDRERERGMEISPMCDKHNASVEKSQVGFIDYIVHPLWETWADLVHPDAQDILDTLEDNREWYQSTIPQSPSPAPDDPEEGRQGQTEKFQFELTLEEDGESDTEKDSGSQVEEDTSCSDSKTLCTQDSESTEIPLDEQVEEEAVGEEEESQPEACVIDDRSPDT

COc1ccc([C@]2(C#N)CC[C@@H](C(=O)O)CC2)cc1OC1CCCC1
Activity (Rattus norvegicus [1]): Active | Activity (Rattus norvegicus [2]): Active

COc1ccc2c(c1)c(CC(=O)O)c(C)n2C(=O)c1ccc(Cl)cc1
Activity (Rattus norvegicus [3]): Active

CC(C)C[C@H](CN)CC(=O)O
Activity (Rattus norvegicus [4]): Active

O=C(Nc1c(Cl)cncc1Cl)c1ccc(OC(F)F)c(OCC2CC2)c1
Activity (Rattus norvegicus [5]): Active | Activity (Rattus norvegicus [6]): Active

COc1cc(-c2ccc(=O)[nH]n2)ccc1OC(F)F
Activity (Rattus norvegicus [7]): Active | Activity (Rattus norvegicus [8]): Active

Nc1ncnc2c1ncn2CCOCP(=O)(O)O
Activity (Rattus norvegicus [7]): Active | Activity (Rattus norvegicus [9]): Active | Activity (Rattus norvegicus [8]): Active | Activity (Rattus norvegicus [10]): Active

COc1cc2c(cc1OC)[C@@H]1CN(C)CC[C@@H]1N=C2c1ccc(NS(=O)(=O)c2ccc(C)cc2)cc1
IC50 [11]: 30 nM

COc1cc(Nc2c(C#N)cnc3cc(OCCCN4CCN(C)CC4)c(OC)cc23)c(Cl)cc1Cl
Activity (Rattus norvegicus [12]): Active | Activity (Rattus norvegicus [13]): Active | Activity (Rattus norvegicus [4]): Active | Activity (Rattus norvegicus [14]): Active

C[C@H](Cn1cnc2c(N)ncnc21)OCP(=O)(O)O
Activity (Rattus norvegicus [15]): Active | Activity (Rattus norvegicus [16]): Active | Activity (Rattus norvegicus [17]): Active | Activity (Rattus norvegicus [18]): Active

— ChEMBL document CHEMBL4419162, “FMO3 inhibitors for treating pain” (2013)
